Here are results for one sequence from PMC11947619, “Molecular mechanism of Mad2 conformational conversion promoted by the Mad2‐interaction motif of Cdc20” (Protein Science : A Publication of the Protein Society, 2025).

For the test, the system named is C‐Mad2. Briefly: NMR chemical shift perturbations of C-Mad2 by Cdc20 residues 138–152. It is filed as binding, human. The conditions noted are these: inferred from small CSPs, spectra of C-Mad2:Cdc20^MIM-123-152 vs C-Mad2:Cdc20^MIM-123-137, and lack of cryo-EM structural information. How it is done:
FIGURE 3 Mad2 conversion rates with different Cdc20^MIM peptides. (a) Schematic of human Cdc20. Box1: Box1 motif; C1: C‐box motif; K1: KEN box motif; MIM: Mad2‐interacting motif, residues 123–137; WD40: WD40 domain, residues 182–480; IR: IR tail. (b) Mad2 conversion in the presence of different Cdc20^MIM peptides. Mad2 conversion was traced at 25°C and the changes in the first 30 min are shown. A black tick indicates where conversion is considered complete. NMR data for O‐Mad2^R133A with Cdc20^MIM‐111‐138 shown for comparison are from Fischer et al. ([2022]). (c) The Cdc20^MIM‐138‐152‐binding site was identified by comparing the spectra of C‐Mad2:Cdc20^MIM‐123‐137 with C‐Mad2:Cdc20^MIM‐123‐152 (boxed in b) and analyzing their CSPs (Figure S8e,f). The Cdc20^MIM‐138‐152‐binding site (blue) is mapped onto the structure of C‐Mad2:Cdc20 from the cryo‐EM structure of the APC/C:MCC complex (PDB 6TLJ) (Alfieri et al., [2016], Alfieri et al., [2020]). The O‐Mad2 structural model is superimposed onto the C‐Mad2 structure for comparison. Cdc20 residues 138–152 are in yellow and residues 126–138 are in green. The β7/β8 hairpin in O‐Mad2 (red) blocks both the binding sites for Cdc20 residues 126–138 and residues 138–152. (d) As in c except the β7/β8 hairpin in O‐Mad2 is removed to expose the Cdc20 binding sites. […] (f) Cdc20^MIM‐123‐152 was titrated into Mad2^∆β7/β8 and its binding was analyzed by NMR. […]

With “QNAPEGYQNRLKVLY [Cdc20^MIM‐138‐152, peptide of Cdc20 residues 138–152]”, the “association with C-Mad2, in words” value was “only weakly associated with C‐Mad2”.
